# Experiments:
# [1] = Tissue distribution (pharmacokinetic study); type: in vivo, mouse; conditions: ICR mice, single oral 20 mg/kg
# Procedure: Male ICR mice (6–8 weeks old, 18–22 g, Shanghai Lingchang BioTech Co., Ltd., China) were used in the pharmacokinetic study. The mice were administered with a single dose of cyclopeptide DC646 in 5% DMSO and 95% hydroxypropyl methylcellulose solution (0.5% hydroxypropyl methylcellulose in deionized water in weight ratio) (volume ratio) by oral gavage (20 mg/kg). Before the test, the mice were fasted for 12 h and were fed regularly 2 h after administration. Subsequently, 50 μL of blood was collected from the portal vein at 1, 4, 8, and 24 h in an EDTA-K2 nebulization tube. Samples were centrifuged at 12,000 rpm for 2 min to separate the plasma, which was then stored at −20°C to determine the drug concentration in the blood. After sacrifice, the livers and intestines were collected, washed with ice-cold saline, and stored at −20°C before compound measurement.
# [2] = target: T1, PPARδ (Homo sapiens, UniProt Q03181); assay: PPARδ cell-based reporter assay; conditions: 10 μmol/L; inhibition of agonist-induced receptor activation
# T1 sequence (Q03181 1-441): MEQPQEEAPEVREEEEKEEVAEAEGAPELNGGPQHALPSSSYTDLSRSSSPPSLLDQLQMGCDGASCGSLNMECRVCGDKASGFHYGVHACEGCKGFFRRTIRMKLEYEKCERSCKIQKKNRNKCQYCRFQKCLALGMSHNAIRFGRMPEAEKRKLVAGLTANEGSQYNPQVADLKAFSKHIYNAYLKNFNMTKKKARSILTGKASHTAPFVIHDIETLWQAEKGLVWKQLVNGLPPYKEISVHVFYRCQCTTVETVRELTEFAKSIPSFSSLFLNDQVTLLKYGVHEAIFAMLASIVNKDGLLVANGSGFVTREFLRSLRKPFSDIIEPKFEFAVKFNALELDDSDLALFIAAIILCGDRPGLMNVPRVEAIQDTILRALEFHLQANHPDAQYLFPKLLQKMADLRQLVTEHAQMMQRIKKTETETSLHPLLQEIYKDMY
# From the text: Inhibition% means inhibition percentage of agonist-induced receptor activation.
# [3] = test system: MCD diet-induced MASH; assay: MCD diet short-term MASH model in WT and Fxr-null mice; type: in vivo, mouse; conditions: oral 10 mg/kg, 2 weeks
# Procedure: For the short-term MASH model, 8- to 10-week-old male C57BL/6 J or Fxr-null mice were fed with an MCD diet, combined with oral administration of vehicle or DC646 (10 mg/kg) for 2 weeks. The serum, liver, and intestine were collected 2 h after the final dosing.
# The intestine and liver were frozen in liquid nitrogen and stored at −80°C. RNA was extracted, and complementary DNA was synthesized from 1 μg total RNA. RT-qPCR was performed on a Bio-Rad CFX384 Touch detection system (Bio-Rad). The primer sequences for RT-qPCR are shown in Supplementary Table S5. RNA levels were analyzed by 2-^ΔΔCt, normalized to 18S ribosomal RNA and expressed as fold change relative to the control group.
# (§1) Hepatic TG and TC, and plasma ALT and AST levels were measured using commercial kits from Nanjing Jiancheng Bioengineering Institute according to the manufacturer’s instructions. To measure hepatic TG contents, liver tissues (~10 mg) were homogenized in 100 μL 1% TritonX-100 and centrifuged at 3000 rpm for 10 min. Supernatants were collected, and 2 μL samples were incubated with 200 μL reaction buffer at 37°C for 10 min. Hepatic TG or TC levels were read at 510 or 500 nm using a microplate reader (Versamax, Molecular Devices) and normalized using the protein concentration. […] The data were acquired using the kinetic mode with an interval of 30 s and 31 total reads at 340 nm using a microplate reader (Versamax, Molecular Devices).
# Tissue specimens were fixed in 10% formalin for 12–24 h before being dehydrated and paraffin-embedded. The sections were stained with H&E. The NAS was calculated as a summary score including individual components of steatosis (0–3), lobular inflammation (0–3), and hepatocyte ballooning (0–2) for each liver section by a blinded liver pathologist, and the results were reviewed by a blinded hepatologist according to a previous protocol. […] At least three discontinuous liver sections were evaluated for each mouse.
# [4] = test system: GAN diet-induced MASH in Fxr^△IE mice; assay: GAN diet-fed Fxr^△IE mice; type: in vivo, mouse; conditions: GAN diet 20 weeks, oral 10 mg/kg daily for 8 weeks
# Procedure: For the long-term MASH model, 8- to 10-week-old male C57BL/6 J mice were fed with an MCS diet or MCD diet for 2 weeks, before the MCD models were administered with vehicle or GUDCA (50 mg/kg), OCA (30 mg/kg), and DC646 (10 mg/kg) for 4 weeks. The serum, liver, and intestine were collected 2 h after the final dosing. Male Fxr^△IE mice (8–10 weeks old) were fed with a GAN diet for 20 weeks and administered with vehicle or DC646 (10 mg/kg) from the 12th week for 8 weeks. The serum, liver, and intestine were collected 2 h after the final dosing.
# as §1, with “Supernatants were collected, and 2 μL samples were incubated with 200 μL reaction buffer at 37°C for 10 min.” left out
# Tissue specimens were fixed in 10% formalin for 12–24 h before being dehydrated and paraffin-embedded. […] At least three discontinuous liver sections were evaluated for each mouse.
smiles,measurement,setting,value
"CC(C)C[C@@H]1NC(=O)[C@@H]2CN(CCO2)c2cccc3c2c(cn3[Si](C(C)C)(C(C)C)C(C)C)C[C@H](NS(=O)(=O)C(F)(F)F)C(=O)OCCCCNC(=O)[C@H](CC(C)C)NC(=O)[C@@H]2CN(CCO2)c2cccc3c2c(cn3[Si](C(C)C)(C(C)C)C(C)C)C[C@H](NS(=O)(=O)C(F)(F)F)C(=O)OCCCCNC1=O [DC646, N,N'-((1^2R,1^4S,16^2R,16^4S,4R,13R,19R,28R)-13,28-diisobutyl-5,12,15,20,27,30-hexaoxo-2^1,17^1-bis(triisopropylsilyl)-2^1H,17^1H-6,21-dioxa-11,14,26,29-tetraaza-1(4,2),16(2,4)-dimorpholina-2,17(4,3)-diindolacyclotriacontaphane-4,19-diyl)bis(1,1,1-trifluoromethanesulfonamide)]",Concentration in liver,[1]; 1 h,BQL^$
same,Concentration in serum,[1]; 1 h,BQL^&
same,Concentration in liver,[1]; 4 h,BQL
same,Concentration in serum,[1]; 4 h,BQL
same,Concentration in liver,[1]; 8 h,BQL
same,Concentration in serum,[1]; 8 h,BQL
same,Concentration in intestine,[1]; 24 h,BQL^$
same,Concentration in liver,[1]; 24 h,BQL
same,Concentration in serum,[1]; 24 h,BQL
same,tissue level at time at 1 h,"[1]; male, mouse, intestine, 1 h, read-out: Concentration in intestine",6350 ng/g
same,tissue level at time at 4 h,"[1]; male, mouse, intestine, 4 h, read-out: Concentration in intestine",435 ng/g
same,tissue level at time at 8 h,"[1]; male, mouse, intestine, 8 h, read-out: Concentration in intestine",72 ng/g
same,inhibition at 10 µM,[2],18.9%
same,Decrease in ALT and antisteatotic effect,[3]; Fxr-null mice,abolished
same,"NAS score, steatosis",[3]; WT mice,effectively reduced steatosis
same,mRNA levels of intestinal FXR target genes Shp and Fgf15,[3]; WT mice,significantly downregulated
same,"Liver/body weight ratio, serum ALT, serum AST, liver TG, liver TC and NAS score",[4],did not reduce
same,mRNA levels of genes in the intestinal FXR signaling,[4],no difference
